For one molecule, IC50 results are on record in ChEMBL document CHEMBL5729525, “Therapeutic compounds and methods of use thereof” (2023).

By IC50 is commonly meant the concentration that gives 50% inhibition. A high value points to weaker potency in that assay.

This experiment addresses Protein cereblon (Homo sapiens, UniProt Q96SW2). In words: Fluorescence Binding Assay: Fluorescence quenching end point measurements were performed in black polystyrene 384-plates on Tecan Safire monochromator reader with the following settings: excitation 280 nm; excitation bandwidth 10.0 nm; emission collection 340 nm; emission bandwidth 20.0 nm; high sensitivity flash mode; integration time 40 μS; delay 0 […]. All measurements were done in duplicates; GraphPad Prism 5.03 was used for data evaluation, curve fitting, plotting and determination of IC50 values.Serial dilutions of each tested ligands were mixed with truncated CRBN (319-427) to a final volume of 25 μL in the assay buffer (20 mM sodium phosphate buffer, pH 6.5, with 150 mM sodium chloride). The final concentration of CRBN in all assay will be 5-10 μM with DMSO level at 4%. A control lanes were prepared with only tested ligands without the addition of CRBN, top up with assay buffer to 25 μL. Plates were incubated for 5 minutes and analyzed using the monochromator plate reader.

Chain of Protein cereblon (Q96SW2 whole entry, the tested form may be a part): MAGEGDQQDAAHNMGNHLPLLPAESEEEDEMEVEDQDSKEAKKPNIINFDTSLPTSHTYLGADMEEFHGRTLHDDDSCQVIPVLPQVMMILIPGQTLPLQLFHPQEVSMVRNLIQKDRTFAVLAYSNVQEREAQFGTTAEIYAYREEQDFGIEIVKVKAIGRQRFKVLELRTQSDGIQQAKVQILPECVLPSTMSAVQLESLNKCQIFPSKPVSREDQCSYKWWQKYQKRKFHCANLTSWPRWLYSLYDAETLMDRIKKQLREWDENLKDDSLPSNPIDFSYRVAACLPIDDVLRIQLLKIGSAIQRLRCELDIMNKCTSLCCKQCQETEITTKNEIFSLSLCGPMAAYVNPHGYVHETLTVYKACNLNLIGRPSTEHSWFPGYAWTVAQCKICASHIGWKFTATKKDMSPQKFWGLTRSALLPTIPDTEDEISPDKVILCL

Take `Nc1ccc(-c2ccc3c(c2)CC(=O)N3)cn1`: the IC50 was greater than 300 µM.
